We go through one compound from PMC9241695, “Selective Metal Chelation by a Thiosemicarbazone Derivative Interferes with Mitochondrial Respiration and Ribosome Biogenesis in Candida albicans” (Microbiology Spectrum, 2022).

Where two headings read alike, the source gives them in different places.

The subject of assay [1] is C. albicans SC5314. The experiment in a line: Rescue effect of exogenous metal ions on MIC of 19ak. In kind it is cell-based. The note with it: Candida albicans. The protocol: h (for C. albicans, C. krusei, C. tropicalis, C. parapsilosis) or 48 h (for C. neoformans, A. fumigatus). The MIC was determined based on visible growth inhibition compared with the control. All experiments were performed in duplicate. […]
Rescue effect of exogenous metal ions on fungal growth inhibition by 19ak.
Since the effects of thiosemicarbazone may be due to binding of intracellular metal ions, we investigated the impact of adding metal ions to the medium on the inhibitory effect of 19ak by performing antifungal susceptibility testing as described above in the presence of 50 μM, 100 μM, and 200 μM ZnSO4, FeSO4, and FeCl3. […]

Assay [2] relates to C. albicans SC5314. Description: Respiratory activity by CTC staining. In kind it is cell-based, Candida albicans. The note with it: 6 h, 1 mM CTC; 19ak 0.125-1 μg/mL, TPEN 0.05-0.4 μg/mL. The protocol:
h (for C. albicans, C. krusei, C. tropicalis, C. parapsilosis) or 48 h (for C. neoformans, A. fumigatus). The MIC was determined based on visible growth inhibition compared with the control. All experiments were performed in duplicate.
Cytotoxicity testing. The cell lines HK2 and 16HBE were used to evaluate the cytotoxicity of 19ak, 19k and 19t. Cells in DMEM containing 10% fetal bovine serum (Gibco) were seeded in 96-well tissue culture plates at a cell density of 1 × 10^4 cells/mL and incubated for 24 h to allow adhesion. The supernatant was then replaced with fresh DMEM containing various concentrations of 19ak, 19k and 19t. […]
The effects of the compounds on cell proliferation were detected by measuring the absorbance at 570 nm in a microplate reader (BioTek, VT, USA). […]
the fluorescent complex […] (CTF) is commonly used to indicate the intensity of microbial respiration. C. albicans SC5314 treated with 19ak was stained with 1 mM CTC for 30 min, followed by flow cytometry analysis of respiratory activity based on fluorescence intensity. Images of cells were obtained using a fluorescence microscope (IX71, Olympus, Tokyo, Japan). […] After an additional 2 h of incubation, OD450 in each well was detected with a microplate reader. […]
Mitochondrial complex activity was expressed as nmol/min/mg protein. […]

The subject of assay [3] is 16HBE. The experiment in a line: Intracellular ferrous and zinc contents in mammalian cells (FeRhoNox-1, Zinbo-5). The note with it: 5 μg/mL, 12 h. It counts as cell-based, human. The protocol: (§1) FeRhoNox-1 is a commercially available fluorescent probe that specifically binds Fe^2+ and is used to measure intracellular Fe^2 + content. C. albicans SC5314 cells cultured overnight were diluted to roughly 1 × 10^6 cells/mL in RPMI 1640 medium and challenged with various doses of 19ak for 6 h. Next, the cells were fixed with 4% paraformaldehyde for 1 h. After washing three times with PBS, the cells were stained with 5 μM FeRhoNox-1 for 30 min and analyzed by flow cytometry (Becton, Dickinson, CA, USA). Mammalian cells culture is according to the method described in Cytotoxicity testing which was described in Supplemental material in detail. After 12 h of treatment with different concentrations of 19ak, the supernatant was discarded and washed three times with PBS. Cells were collected after staining with FeRhoNox-1 for 30 min in the dark, and the fluorescence intensity of stained cells was analyzed by flow cytometry.
(§2) C. albicans SC5314 cells grown overnight were pelleted, washed three times with PBS buffer, and resuspended to obtain an OD600 of 2.0. Next, the cells were incubated with various concentrations of 19ak in 96-well plates at 30°C for 6 h, followed by incubation with 10 μM Zinbo-5 for 30 min. Finally, fluorescence was measured in a microplate reader (excitation at 355 nm, emission at 485 nm). […]

For assay [4], the system named is HepG2. Described as above. In kind it is cell-based, human. The note with it: 5 μg/mL, 12 h. The protocol:
as §1, §2

Assay [5] relates to C. albicans SC5314. The experiment in a line: Drug resistance study by serial passage. In kind it is cell-based, Candida albicans. The note with it: RPMI 1640 medium, 40-day period, passages at 0.5 × MIC.

The term MIC denotes the lowest concentration that inhibits growth of the organism. With `C/C(=N\NC(=S)N(C)C)c1ccccn1` [Compound 19ak], the MIC worked out at 1 µg/mL in assay [1] (SC5314, + 50 μM Fe^2+ (FeSO4), read-out: MIC against C. albicans SC5314); 0.25 µg/mL in assay [1] (SC5314, + 50 μM Fe^3+ (FeCl3), read-out: MIC against C. albicans SC5314); 4 µg/mL in assay [1] (SC5314, + 50 μM Zn^2+ (ZnSO4), read-out: MIC against C. albicans SC5314); 1 µg/mL in assay [1] (SC5314, + 100 μM Fe^2+ (FeSO4), read-out: MIC against C. albicans SC5314); 0.25 µg/mL in assay [1] (SC5314, + 100 μM Fe^3+ (FeCl3), read-out: MIC against C. albicans SC5314); 4 µg/mL in assay [1] (SC5314, + 100 μM Zn^2+ (ZnSO4), read-out: MIC against C. albicans SC5314). Moreover, the MIC in assay [1] (SC5314, + 200 μM Fe^2+ (FeSO4), read-out: MIC against C. albicans SC5314) is 1 µg/mL; in assay [1] (SC5314, + 200 μM Fe^3+ (FeCl3), read-out: MIC against C. albicans SC5314), 0.5 µg/mL; in assay [1] (SC5314, + 200 μM Zn^2+ (ZnSO4), read-out: MIC against C. albicans SC5314) it was 4 µg/mL; in assay [1] (SC5314, read-out: MIC against C. albicans SC5314) it was 0.125 µg/mL. Moreover, the “Mitochondrial respiratory activity (CTC fluorescence intensity)” value in assay [2] is “dose-dependently reduced”. The “Ferrous and zinc contents in 16HBE cells” value in assay [3] was “almost had no effects”. Besides, the “Ferrous and zinc contents in HepG2 cells” value in assay [4] is “almost had no effects”. The “Change of MIC after repeated exposure” value in assay [5] is recorded as “did not alter the MIC”.
